Laboratory results published in patent US20150218252A1, “SELF-ASSEMBLING PEPTIDES, PEPTIDE NANOSTRUCTURES AND USES THEREOF” (President and Fellows of Harvard College, priority 2012, published 2015).
Residues, ends and D or L forms follow the SMILES beside them.

Tests used:
[1] = Dynamic light scattering (DLS) size distribution of self-assembled peptide nanoparticles; assay type: physicochemical; details: for average hydrodynamic diameter / polydispersity index (PDI): DLS
Source text: Self-assembling peptides (e.g., FF and YF peptides as shown in Table 1 and FIG. 1, each with a sequence of 10 amino acids in length) were each prepared by FMOC solid-phase peptide synthesis, for example, on Wang resin and cleaved from the resin with a solution mixture of trifluoroacetic acid/triisopropylsilane/water in a volume ratio of […]. The synthesized peptides were then purified by reversed phase HPLC. These peptide constructs were selected to represent bulky aliphatic and aromatic amino acid residues. […] The peptide concentration of the resulting mixture was about 2.5 mg/mL to about 100 mg/mL. The mixture was stirred at about 200 rpm to about 300 rpm for about 5 mins. The stirring speed can be varied to control size homogeneity. […] Accordingly, the size of the nanostructures can be, at least in part, controlled by the sequence of the amino acid construct.
The self-assembled peptide nanoparticles formed (e.g., from FF or YF peptides) in cold water (cold deionized water) as shown in Example 2 were stable for about 2 hours before they eventually disaggregated as determined by DLS. To increase the stability of FF and YF, a solvent injection protocol was used. […] Different concentrations and/or types of salts could be used to prepare the saline solution, depending on the solubility of the peptide constructs in the respective solution. In some embodiments, any buffer solution such as PBS, acetate, succinate and citrate buffer could be used instead. The resulting particles size varied with peptide concentration from about 5 mg/ml to about 50 mg/ml with low polydispersities (FIGS. 4A-4B). By addition of 0.9% NaCl in the cold solution, the stability of the particles was increased from about 2 h to about 24 h as determined by DLS. […] Thus, in one embodiment, the average size of the nanoparticles can be controlled by simply varying the temperature of the formulation buffere, e.g., at room temperature or under cold ˜2-4° C. conditions.
Each peptide was dissolved in distilled deionized water at varying concentrations, which can, in part, control particle size. Mixtures of ˜80 mg/mL, ˜50 mg/mL, and ˜20 mg/mL peptide concentration were each stirred vigorously (e.g., using a magnetic stirrer) for about 10 mins at room temperature or at about 4° C. Nanoparticles were measured, e.g., by dynamic light scattering (DLS), to be in the range from about 50 nm to about 2 μm.
A zeta particle size analyzer (Malvern instruments, UK) operating with a HeNe laser, and a 173° back scattering detector was used to determine the size distribution of the nanoparticles. Samples were prepared at 80 mg/mL, 50 mg/mL, and 20 mg/mL in water and measured directly by dynamic light scattering measurement (n=3 per condition). Malvern instrument software or Microsoft Excel was used to analyze the acquired data.

[2] = Stability of self-assembled peptide nanoparticles determined by DLS; assay type: physicochemical; details: for time particles stable before disaggregation: formed in cold deionized water; for time particles stable before disaggregation / particle stability: DLS; for particle stability compared to FF and YF constructs: function of residue at X4, data not shown
Description: The self-assembled peptide nanoparticles formed (e.g., from FF or YF peptides) in cold water (cold deionized water) as shown in Example 2 were stable for about 2 hours before they eventually disaggregated as determined by DLS. To increase the stability of FF and YF, a solvent injection protocol was used. That is, the peptide constructs were dissolved in an organic solvent (e.g., but not limited to, DMSO, acetone, ethanol, dioxane, acetonitrile, methanol, and THF) at ˜150 mg/ml and a fixed volume was then injected in cold saline solution (e.g., but not limited to, ˜0.9% NaCl) while stirring. Different concentrations and/or types of salts could be used to prepare the saline solution, depending on the solubility of the peptide constructs in the respective solution. In some embodiments, any buffer solution such as PBS, acetate, succinate and citrate buffer could be used instead. The resulting particles size varied with peptide concentration from about 5 mg/ml to about 50 mg/ml with low polydispersities (FIGS. 4A-4B). By addition of 0.9% NaCl in the cold solution, the stability of the particles was increased from about 2 h to about 24 h as determined by DLS. […] Thus, in one embodiment, the average size of the nanoparticles can be controlled by simply varying the temperature of the formulation buffere, e.g., at room temperature or under cold ˜2-4° C. conditions.
In some embodiments, the nanoparticles can be formed by a process, which comprises dissolving an isolated peptide described herein (e.g., example peptides shown in Tables 1-2) in organic solvents such as DMSO at high concentration (e.g., about 400 mg/mL) and injecting a fixed volume of the dissolved peptides in cold saline (e.g., ˜0.9% sodium chloride solution) while stirring. The cold precipitation method (e.g., using a cold saline medium) can more efficiently induce peptide self-assembly. In some embodiments, the cold precipitation method (e.g., using a cold saline medium) can improve particle stability, e.g., from about 2 hours (e.g., when particles were formed by simply mixing the isolated peptides at a specified temperature) to about 24 hours (where the particles were formed by cold saline precipitation method described herein).
To further improve stability of nanoparticles, stability of the resulting particles was investigated as a function of amino acid residue at the X4 position as indicated in Table 1 (entry 3-7) and X4 position as indicated in FIG. 1. […] For example, as shown in FIG. 4E and FIG. 5, the particles self-assembled from the YF peptides or Y peptides can be stable for at least about 120 hours or longer when formed in the formulation buffer (e.g., ˜0.9% NaCl), e.g., using the cold precipitation method described earlier. Without wishing to be bound by theory, this increase in stability is likely, in part, due to the tyrosine residue at position X4 that can be stabilized by the free amine at the N-terminus.

[3] = Encapsulation of hydrophobic (Nile Red) and hydrophilic (Calcein) dyes in peptide nanoparticles; assay type: physicochemical; details: YF ~25 mg/mL in cold saline
Description: Nile Red (NR) a hydrophobic dye and Calcein, hydrophilic dyes were used as model agents for hydrophobic and hydrophilic drugs or molecules, respectively. For example, YF was dissolved in DMSO to make a stock concentration of about 380 mg/mL. Stock solutions of Nile red and Calcein dyes were each prepared in DMSO at about 3 mg/ml and about 20 mg/mL, respectively. A mixture of YF (about 380 mg/ml) and at least one model agent (e.g., Nile red (0.28 mg/mL) and/or Calcein (1.8 mg/mL)) was added to a formulation buffer, e.g., cold saline (e.g., about 0.3 mL) and mixed, e.g., by manual pipetting. The final ratios of peptide to dyes were ˜25 mg/ml to ˜0.02 mg/ml (YF:NR) and ˜25 mg/mL to ˜0.124 mg/mL (YF:calcein). In some embodiments, about 20-30% of each dye was encapsulated within self-assembling YF nanoparticles.
The peptide nanostructures (e.g., peptide nanoparticles (NP)) were visualized by fluorescence microscopy using the hydrophobic dye, Nile Red, which has a strong emission at […] when present in a lipid-rich environment and excited at ˜485 nm, or the hydrophilic dyes, calcein (excitation/emission 495 nm/515 nm) and FITC-Dextran (excitation/emission 495 nm/521 nm). […] An aliquot of ˜10 μL solution was then added to a glass cover slip for visualization using fluorescence microscopy (TIRF DM1600).

[4] = Cell viability (CellTiter-Blue) of cells cultured with peptides / peptide nanoparticles; assay type: cell-based; details: mouse, murine breast cancer cells (4T1 and M6 cells); after at least about 24 hours or longer in culture; data not shown; read-out: viable cells
Description: The viability of cells incubated with various concentrations of peptide constructs and/or resulting peptide nanoparticles were evaluated.
To assess effects of the peptides and/or peptide nanostructures described herein on cell viability, cells were grown to confluence in gelatin 96-well plates, following which they were either left untreated or treated with blank or one or more embodiments of the peptide nanoparticles (˜25 mg/ml) for about 18 hours. CellTiter-Blue® reagent was then added to each well and, following 4 hour incubation at ˜37° C., the fluorescence signal was measured using a fluorescence multiwell plate reader (Victor3™, PerkinElmer, Mass., USA). All fluorescent intensity measurements were then normalized with respect to the untreated 4T1 mouse mammary carcinoma cells.

[5] = Biodistribution of Alexa 750-loaded nanoparticles after tail vein injection; assay type: in vivo; details: mice
Description: FIG. 11 is a line graph showing biodistribution of YF nanoparticles in mice within 2 hours after injection. An imaging dye (e.g., Alexa 750 dye) was encapsulated in the YF nanoparticles and administered to the mice by tail vein injection.
Chemical and physical properties of the resulting nanoparticles, including size, surface charge, and surface chemistry, are important factors that determine their pharmacodynamics and biodistribution, which define their efficacy to deliver an agent and toxicity. Accordingly, it was next sought to determine tissue distribution of these resulting nanoparticles. Specifically, Alexa 750 dye was encapsulated in YF nanoparticles and administered to mice by tail vein injection. At intervals of 0.5, 1.0, and 2.0 hours, the animals were euthanized, then dissected. […] These nanoparticles can potentially eliminate the need for expensive spraying approach in aerosol delivery.

[6] = formed in cold saline (~0.9% NaCl), solvent injection, FF ~50 mg/mL, YF ~5 mg/mL
[7] = formed in cold saline, FF ~50 mg/mL, YF ~5 mg/mL
[8] = self-assembled in cold deionized water
[9] = formed in cold saline, FIG. 4E, FIG. 5

Question: With VPGFGVPGFG [FF] as the compound, how does the average hydrodynamic diameter [1, 6] read?
Answer: ~191 nm

Question: And the “polydispersity index (PDI)” value [1, 7]?
Answer: 0.18

Question: What about the “polydispersity index (PDI)” value [1, 8] of the same compound?
Answer: 0.27

Question: What about the “time particles stable before disaggregation” value [2] of the same compound?
Answer: about 2 hours

Question: And the particle stability ([2]; formed in cold saline (~0.9% NaCl), cold precipitation method)?
Answer: ~24 h

Question: For CC(C)[C@H](N)C(=O)N1CCC[C@H]1C(=O)NCC(=O)N[C@@H](Cc1ccc(O)cc1)C(=O)NCC(=O)N[C@H](C(=O)N1CCC[C@H]1C(=O)NCC(=O)N[C@@H](Cc1ccccc1)C(=O)NCC(=O)O)C(C)C [YF, VPGYGVPGFG] (H-VPGYGVPGFG-OH), which average hydrodynamic diameter [1, 6] is on record?
Answer: 600 nm

Question: And the “polydispersity index (PDI)” value [1, 7]?
Answer: 0.07

Question: And the average hydrodynamic diameter [1, 8]?
Answer: ~900 nm

Question: What about the “polydispersity index (PDI)” value [1, 8] of the same compound?
Answer: 0.33

Question: What about the “time particles stable before disaggregation” value [2] of the same compound?
Answer: about 2 hours

Question: What about the particle stability [2, 9] of the same compound?
Answer: at least 5 days

Question: What about the “fraction of each dye encapsulated” value [3] of the same compound?
Answer: 20-30%

Question: What about the viability [4] of the same compound?
Answer: > 80%

Question: And the “tissue distribution: lungs” value ([5]; 0.5-2.0 hours)?
Answer: greater deposition of the nanoparticles in the lungs

Question: What about the “time high fluorescence levels detected and maintained in vivo” value ([5]; Alexa 750 encapsulated, FIG. 11) of the same compound?
Answer: at least 2 hours

Question: What about the “tissue distribution: brain / blood-brain-barrier” value ([5]; fluorescence in brain) of the same compound?
Answer: cross the blood-brain-barrier and deposit in the brain

Question: For VPGFGVPGYG [FY], which “particle stability compared to FF and YF constructs” value [2] is on record?
Answer: did not show a significant increase in stability

Question: With CC(C)[C@H](N)C(=O)N1CCC[C@H]1C(=O)NCC(=O)N[C@@H](Cc1ccc(O)cc1)C(=O)NCC(=O)O [Y, VPGYG] (H-VPGYG-OH) as the compound, how does the particle stability [2, 9] read?
Answer: ≥ 120 h

Question: What about the viability [4] of the same compound?
Answer: > 80%

Question: For VPGWGVPGFG [WF], which “particle stability compared to FF and YF constructs” value [2] is on record?
Answer: did not show a significant increase in stability

Question: For VPGFGVPGWG [FW], which “particle stability compared to FF and YF constructs” value [2] is on record?
Answer: did not show a significant increase in stability

Question: For IPGYG, which “size distribution (monodispersity) relative to other substituted peptides” value ([1]; DMSO stock ~380 mg/mL injected in cold saline ~2-4 °C, final ~25 mg/mL, FIG. 14) is on record?
Answer: more monodisperse
